# Patent publication US20100273189A1, “NON SEPARATION ASSAYS WITH SELECTIVE SIGNAL INHIBITORS” (BECKMAN COULTER, INC., priority 2009, published 2010)
# Where two headings read alike, the source gives them in different places.
# Legend:
# GM-CSF = test system: GM-CSF
# Method: The term “GM-CSF” refers to granulocyte macrophage […], a protein necessary for the survival, proliferation and differentiation of hematopoietic progenitor cells, having human gene map locus 5q31.1. A variety of antibodies to GM-CSF are commercially available.
# Heterogeneous phase assays directed to GM-CSF were conducted using a LodeStars PMP labeled with AK4 and biotin/streptavidin (AK-PMP-SA) as described in Example 3, an antibody-biotin conjugate and an antibody-HRP conjugate binding to GM-CSF. The antibody-HRP conjugate, (antiGM-CSF-HRP) was purchased from Antigenix.
# The antibody-biotin (antiGM-CSF-biotin) conjugate was synthesized by adding a 25-fold molar excess (9.28 μg) of sulfo NHS-biotin (Pierce), dissolved in DMF (1 mg/mL), to 0.1 mg of antibody (Antigenix) in 0.1 mL of 0.1 M sodium borate pH 8.25. After a 60 min incubation at ambient temperature, the reaction was left to incubate overnight at 4° C. The biotinylated antibody was purified over a Sephadex G-25 column (GE Healthcare), equilibrated in PBS, pH 7.4, following the manufacturers instructions.
# In order to conduct the heterogeneous assay, 30 μL of an antiGM-CSF-Biotin conjugate solution (0.75 μg/mL, 22.5 ng), 30 μL of calibrator solution having GM-CSF in the range 0-30,000 pg/mL, 30 μL of antiGM-CSF-HRP conjugate (2.25 μg/mL, 67 ng), and 30 μL of AK-streptavidin magnetic particle solution (10 μg of particles) were pipetted into the wells of a white microtiter plate. The plate was incubated for 60 minutes at room temperature. 5 μL of a 2-aminophenol solution (11 mM, 55 nmoles) was added as SSIA. The plate was placed into an injection plate luminometer. 100 μL of trigger solution A was added by the luminometer and the chemiluminescent signal was read for 5 seconds.
# biotinylated HRP = target: T1, biotinylated HRP (Armoracia rusticana, UniProt P00433); assay: Model system for selection of SSIA (M280 btn-BSA-AK1-streptavidin particles + Btn-HRP:HRP); type: biochemical; conditions: for S/S0: Btn-HRP 0 ng/mL vs 0; for S/S0 / S1/S0 / S2/S0 / S3/S0 / S4/S0 / effect in the model system / utility as SSIA: SSIA 100 μM; for B-HRP0 light intensity: Btn-HRP 0 ng/mL; for B-HRP0 light intensity / B-HRP1 light intensity / B-HRP10 light intensity / B-HRP100 light intensity / B-HRP250 light intensity: total HRP 500 ng/mL, SSIA final 100 μM; for S1/S0: Btn-HRP 1 ng/mL vs 0; for B-HRP1 light intensity: Btn-HRP 1 ng/mL; for S2/S0: Btn-HRP 10 ng/mL vs 0; for B-HRP10 light intensity: Btn-HRP 10 ng/mL; for S3/S0: Btn-HRP 100 ng/mL vs 0; for B-HRP100 light intensity: Btn-HRP 100 ng/mL; for S4/S0: Btn-HRP 250 ng/mL vs 0; for B-HRP250 light intensity: Btn-HRP 250 ng/mL; for effect in the model system / utility as SSIA: conclusion in words
# T1 construct: purchased Roche Diagnostics, Indianapolis, Ind., USA
# T1 sequence (P00433 31-338 limits assumed): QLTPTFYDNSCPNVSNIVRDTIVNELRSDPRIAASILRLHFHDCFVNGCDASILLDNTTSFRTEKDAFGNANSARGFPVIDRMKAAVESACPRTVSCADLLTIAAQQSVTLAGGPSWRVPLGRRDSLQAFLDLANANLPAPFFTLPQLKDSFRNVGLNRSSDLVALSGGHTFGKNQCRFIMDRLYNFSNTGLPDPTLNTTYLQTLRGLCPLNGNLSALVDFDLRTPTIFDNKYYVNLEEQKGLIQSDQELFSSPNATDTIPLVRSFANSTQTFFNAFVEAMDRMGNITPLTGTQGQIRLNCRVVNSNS
# Method: The model system uses a microparticle conjugated to BSA (bovine serum albumin) labeled with a […] and acridan ketenedithioacetal chemiluminescent label (AK1) as the chemiluminescent-labeled sbp, and biotinylated HRP as the activator-labeled specific binding pair. In the model system, varying amounts of Btn-HRP is added to the chemiluminescent-labeled specific binding pair at 0, 1, 10, 100 and 250 ng/mL. Additional unlabeled HRP is added to reach a total HRP of concentration of 500 ng/mL in each reaction mixture. The unlabeled HRP in combination with the activator-labeled sbp was provided to the chemiluminescent-labeled sbp microparticles to emulate sample. A compound for assessment as an SSIA was also added. This reaction mixture of the model system is then triggered by addition of trigger solution in a manner of assays of the present disclosure.
# To prepare the chemiluminescent-labeled sbp on microparticles, Bovine Serum Albumin (BSA) was biotinylated with 4× molar excess of biotin-LC-sulfoNHS (Pierce Biotechnology Inc., Rockford, Ill., USA). Unbound reactants were removed via desalting or dialysis. The biotin-BSA was then reacted with a 5× molar excess of acridan ketenedithioacetal AK1 in 20 mM sodium phosphate pH 7.2: DMSO 75:25, v/v) followed by desalting in the same buffer. The dual labeled (biotin and AK1) BSA was then coupled with tosyl activated M-280 microparticles (Invitrogen Corporation, Carlsbad, Calif., USA) in a 0.1 M borate buffer pH 9.5 at a concentration of ca. 20 μg labeled BSA per mg of microparticles for 16-24 h at 40° C. After coupling the microparticles were stripped for 1 h at 40° C. with 0.2 M TRIS base, 2% SDS, pH ˜11. The stripping process was repeated one additional time. Microparticles were then suspended in a 0.1% BSA/TRIS buffered saline (BSA/TBS) buffer and streptavidin (SA) was added at approximately 15 μg SA per mg microparticles. Streptavidin was mixed with the microparticles for 45-50 min at room temperature. The microparticles were then washed three times and suspended in the same BSA/TBS.
# HRP, (Roche Diagnostics, Indianapolis, Ind., USA) was biotinylated with 4× molar excess of biotin-LC-sulfoNHS (Pierce Biotechnology Inc., Rockford, Ill., USA). Unbound reactants were removed via desalting or dialysis.
# Each SSIA compound for assessment was dissolved in Buffer II at a concentration at least 10× of final concentration of the reaction mixture (after the addition of the trigger solution)
# Paramagnetic particles (PMP): (M280)-(btn-BSA-AK)-(Streptavidin);
# Sample Emulator: B-HRP:HRP; 500 ng/mL total with titration of B-HRP:HRP at Total HRP concentration of 500 ng/mL, with Btn-HRP variations: 0, 1, 10, 100 and 250 ng/mL.
# SSIA: According to tables below in BUFFER II targeted to give a final concentration of 100 μM.
# Trigger solution A is defined above.
# 5 μl of 1 mg/ml of dual-labeled (biotin and AK1) BSA M280 particles were mixed with 45 μl of working concentration SSIA in Buffer II. The assay volume brought to […] by adding 15 μl of Buffer II. 15 μl of sample containing Btn-HRP:HRP at different ratios (The amount of biotinylated-HRP varied from 0, 1, 10, 100 and 250 ng/mL) was added. The reaction mixture was incubated for 30 min at 37° C., then 100 μL of trigger solution was added and the light intensity recorded. Total volume of reaction mixture, including trigger solution was […] with a final concentration of 100 μM of SSIA.
# PSA = assay: Screening SSIA by homogeneous PSA immunoassay; type: biochemical
# Method: This example presents one method used for testing of candidate compounds for functionality as SSIA in assays of the present disclosure. Testing was conducted in a model screening immunoassay of the protein PSA. Mouse anti-PSA tests were run using a 96-well microtiter plate format. […] The plate was incubated at 37° C. for 10 minutes. A 5 μL aliquot of the test compound (various concentrations) was added to each well. Chemiluminescence was triggered by the addition of 100 μL of a solution of trigger solution A. The chemiluminescent flash was integrated for 5 seconds after the addition of the trigger solution using a Luminoskan Asent® plate luminometer, (Thermo Fischer Scientific, Inc., Waltham, Mass.).
# It is desirable that the improvement factor be at least 2 (S5/S0≧ about 20-30) and more desirable that improvement factor be at least 5 (S5/S0≧ about 50), yet more desirable that S5/S0 be ≧100 in the present screen.
# [1] = 2-aminophenol as SSIA, GM-CSF 0 pg/mL
# [2] = 2-aminophenol as SSIA, GM-CSF 1 pg/mL
# [3] = 2-aminophenol as SSIA, GM-CSF 3 pg/mL
# [4] = 2-aminophenol as SSIA, GM-CSF 5 pg/mL
# [5] = 2-aminophenol as SSIA, GM-CSF 10 pg/mL
# [6] = 2-aminophenol as SSIA, GM-CSF 100 pg/mL
# [7] = 2-aminophenol as SSIA, GM-CSF 1000 pg/mL
# [8] = 2-aminophenol as SSIA, GM-CSF 10000 pg/mL
# [9] = PSA 129 ng/mL (S5) vs zero, test compound final conc. 0.122 mM
# [10] = PSA 129 ng/mL (S5) vs zero, test compound final conc. 0.244 mM
# [11] = PSA 129 ng/mL (S5) vs zero, test compound final conc. 122 uM
smiles,measurement,setting,value
Nc1ccccc1O [2-aminophenol],Mean RLU,"GM-CSF; 2-aminophenol 55 nmoles as SSIA, GM-CSF 30000 pg/mL",2180 RLU
same,Mean RLU,GM-CSF; [1],0.7805 RLU
same,S/S0,GM-CSF; [1],1.000
same,Mean RLU,GM-CSF; [2],0.8045 RLU
same,S/S0,GM-CSF; [2],1.030
same,Mean RLU,GM-CSF; [3],0.8865 RLU
same,S/S0,GM-CSF; [3],1.135
same,Mean RLU,GM-CSF; [4],0.9205 RLU
same,S/S0,GM-CSF; [4],1.179
same,Mean RLU,GM-CSF; [5],1.284 RLU
same,S/S0,GM-CSF; [5],1.645
same,Mean RLU,GM-CSF; [6],5.2805 RLU
same,S/S0,GM-CSF; [6],6.765
same,Mean RLU,GM-CSF; [7],47.89 RLU
same,S/S0,GM-CSF; [7],61.358
same,Mean RLU,GM-CSF; [8],580.6 RLU
same,S/S0,GM-CSF; [8],743.882
same,S/S0,"GM-CSF; 2-aminophenol as SSIA, GM-CSF 30000 pg/mL",2793.081
same,S/S0,biotinylated HRP,1
same,B-HRP0 light intensity,biotinylated HRP,65
same,S1/S0,biotinylated HRP,5.5
same,B-HRP1 light intensity,biotinylated HRP,356
same,S2/S0,biotinylated HRP,132.8
same,B-HRP10 light intensity,biotinylated HRP,"8,632"
same,S3/S0,biotinylated HRP,32195.4
same,B-HRP100 light intensity,biotinylated HRP,"2,092,703"
same,S4/S0,biotinylated HRP,61672.1
same,B-HRP250 light intensity,biotinylated HRP,"4,008,689"
same,effect in the model system / utility as SSIA,biotinylated HRP,demonstrating utility as SSIA
NN [NH2NH2],S5/S0,"PSA; PSA 129 ng/mL (S5) vs zero, test compound final conc. 244 uM",15
CC1(C)OC(=O)C(O)=C1O,S5/S0,PSA; [9],467
Nc1ccc2ccccc2c1O,S5/S0,PSA; [10],109
Cc1ccc(O)c(O)c1,S5/S0,PSA; [9],142
Nc1c(O)ccc2ccccc12,S5/S0,PSA; [9],63
O=c1c(O)c(-c2ccccc2)oc2ccccc12,S5/S0,PSA; [9],13
O=S(=O)([O-])CCCN1c2ccccc2Cc2ccccc21.[Na+],S5/S0,PSA; [10],15
O=C1C(O)=C(O)C(=O)C(O)=C1O,S5/S0,"PSA; PSA 129 ng/mL (S5) vs zero, test compound final conc. 0.061 mM",51
O=C(O)c1cc(O)c(O)c(O)c1,S5/S0,PSA; [9],135
Nc1cc2ccccc2cc1O,S5/S0,PSA; [10],67
O=C1O[C@H]([C@@H](O)CO)C(O)=C1O [drawing 64],S5/S0,PSA; [11],10.3
[N-]=[N+]=[N-].[Na+] [NaN3],S5/S0,"PSA; PSA 129 ng/mL (S5) vs zero, test compound final conc. 34 uM",19
COc1cc(C(C)(C)C)c(O)c(C(C)(C)C)c1,S5/S0,PSA; [9],19
Oc1cccnc1O,S5/S0,PSA; [9],41
C[C@H]1OC(=O)C(O)=C1O,S5/S0,PSA; [9],423
O=C1C(O)=C(Cl)C(=O)C(O)=C1Cl,S5/S0,"PSA; PSA 129 ng/mL (S5) vs zero, test compound final conc. 0.031 mM",7
O=C1O[C@H]([C@@H](O)CO)C(=O)C1=O,S5/S0,PSA; [9],26
O=C1O[C@H]([C@@H](O)CO)C([O-])=C1O.[Na+],S5/S0,PSA; [11],9.2
N[C@@H](CCC(=O)N[C@@H](CS)C(=O)NCC(=O)O)C(=O)O [Glutathione],S/S0,biotinylated HRP,1
same,B-HRP0 light intensity,biotinylated HRP,"26,977"
same,S1/S0,biotinylated HRP,2.1
same,B-HRP1 light intensity,biotinylated HRP,"55,719"
same,S2/S0,biotinylated HRP,92
same,B-HRP10 light intensity,biotinylated HRP,"2,480,764"
same,S3/S0,biotinylated HRP,323.7
same,B-HRP100 light intensity,biotinylated HRP,"8,733,068"
same,S4/S0,biotinylated HRP,369.4
same,B-HRP250 light intensity,biotinylated HRP,"9,965,235"
same,effect in the model system / utility as SSIA,biotinylated HRP,no effect
same,S5/S0,PSA; [11],77
N[C@@H](CS)C(=O)O [L-Cysteine],S5/S0,PSA; [11],22
Oc1c(F)c(F)c(O)c(F)c1F,S5/S0,"PSA; PSA 129 ng/mL (S5) vs zero, test compound final conc. 0.014 mM",50
Nc1ncccc1O,S5/S0,PSA; [9],32
c1ccc2c(c1)Cc1ccccc1N2,S5/S0,PSA,120
Nc1c(O)cc(S(=O)(=O)O)c2ccccc12,S5/S0,PSA; [9],65
OCCO [Ethylene glycol],S5/S0,PSA,14
O=C(O)c1ccc(O)c(O)c1,S5/S0,PSA; [9],178
NCCNC(=O)c1ccc(NN)cc1,S5/S0,"PSA; PSA 129 ng/mL (S5) vs zero, test compound final conc. 1.22 mM",138
